The values that follow come from paper PMC11207149, “Novel hematopoietic progenitor kinase 1 inhibitor KHK-6 enhances T-cell activation” (PLOS ONE, 2024).

In general, IC50 refers to the point on the concentration scale where inhibition reaches its midpoint.

The experiment has as its target T1, hematopoietic progenitor kinase 1 (HPK1) (Homo sapiens, UniProt Q92918).
T1 construct: gene MAP4K1
The experiment in a line: radiometric [γ-33P]-ATP kinase assay (Eurofins KinaseProfiler), recombinant human HPK1, MBP substrate. It counts as biochemical.

T1 sequence (Q92918 whole entry): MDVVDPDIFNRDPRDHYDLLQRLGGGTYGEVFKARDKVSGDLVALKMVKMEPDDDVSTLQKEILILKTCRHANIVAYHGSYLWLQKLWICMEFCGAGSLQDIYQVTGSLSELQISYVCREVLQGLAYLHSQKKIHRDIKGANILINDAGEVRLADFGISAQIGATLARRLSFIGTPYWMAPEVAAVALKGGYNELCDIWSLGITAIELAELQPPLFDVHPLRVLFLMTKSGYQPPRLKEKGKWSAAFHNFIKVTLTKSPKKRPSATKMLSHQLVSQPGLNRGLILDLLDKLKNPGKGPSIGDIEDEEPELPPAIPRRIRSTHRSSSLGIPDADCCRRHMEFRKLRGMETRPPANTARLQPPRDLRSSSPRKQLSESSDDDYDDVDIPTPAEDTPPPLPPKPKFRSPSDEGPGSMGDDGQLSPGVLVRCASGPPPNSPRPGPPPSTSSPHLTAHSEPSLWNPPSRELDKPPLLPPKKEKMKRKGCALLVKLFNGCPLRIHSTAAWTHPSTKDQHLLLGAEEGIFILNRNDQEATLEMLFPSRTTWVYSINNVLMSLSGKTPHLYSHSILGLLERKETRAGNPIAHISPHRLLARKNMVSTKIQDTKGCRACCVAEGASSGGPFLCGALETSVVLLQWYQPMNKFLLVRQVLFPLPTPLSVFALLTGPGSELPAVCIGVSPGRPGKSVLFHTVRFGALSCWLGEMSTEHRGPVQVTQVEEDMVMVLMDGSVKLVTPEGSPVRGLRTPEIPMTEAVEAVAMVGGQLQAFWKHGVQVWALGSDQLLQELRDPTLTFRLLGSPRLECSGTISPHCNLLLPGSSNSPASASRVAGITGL

Consider `CC(C)S(=O)(=O)c1ccccc1Nc1nc(Nc2ccc3c(c2)C(C)(C)OC3=O)ncc1Cl` [KHK-6], for which the IC50 is 20 nM.
